Test results as given in patent publication US20080227823A1, “AMIDE DERIVATIVES AS CALCIUM CHANNEL BLOCKERS” (priority 2007, published 2008).

Key:
[1] = spinal nerve ligation model of neuropathic pain in rats; cited from earlier work
[2] = biological target: T1, human α1I T-type channels (Homo sapiens, UniProt Q9P0X4); assay: T-type calcium channel block, whole cell patch clamp in HEK cells; format: cell-based; conditions: mainly non-inactivated protocol
T1 construct: expressed in transfected cells; host or cells: HEK 293
Procedure: (§1) T-type calcium channel blocking activity was assayed in human embryonic kidney cells, HEK 293, stably transfected with the T-type calcium channel subunits. Briefly, cells were cultured in Dulbecco's modified eagle medium (DMEM) supplemented with 10% fetal bovine serum, 200 U/ml penicillin and 0.2 mg/ml streptomycin at 37° C. with 5% CO2. At 85% confluency cells were split with 0.25% trypsin/1 mM EDTA and plated at 10% confluency on glass coverslips. At 12 hours the medium was replaced and the cells stably transfected using a standard calcium phosphate protocol and the appropriate calcium channel cDNA's. Fresh DMEM was supplied and the cells transferred to 28° C./5% CO2. Cells were incubated for 1 to 2 days prior to whole cell recording.
(§2) Standard patch-clamp techniques were employed to identify blockers of T-type currents. Briefly, previously described HEK cell lines stably expressing human α1G, α1H and α1I T-type channels were used for all the recordings (passage #: 4-20, 37° C., 5% CO2). Whole cell patch clamp experiments were performed using an Axopatch 200B amplifier (Axon Instruments, Burlingame, Calif.) linked to a personal computer equipped with pCLAMP software. Data were analyzed using Clampfit (Axon Instruments) and SigmaPlot 4.0 (Jandel Scientific). To obtain T-type currents, plastic dishes containing semi-confluent cells were positioned on the stage of a ZEISS AXIOVERT S100 microscope after replacing the culture medium with external solution (see below). Whole-cell patches were obtained using pipettes (borosilicate glass with filament, O.D.: 1.5 mm, I.D.: 0.86 mm, 10 cm length), fabricated on a SUTTER P-97 puller with resistance values of ˜5 MΩ (see below for internal solution).
(§3) T-type currents were reliably obtained by using two voltage protocols: • (1) “non-inactivating”, and • (2) “inactivation”
(§4) In the non-inactivating protocol, the holding potential is set at −110 mV and with a pre-pulse at −100 mV for 1 second prior to the test pulse at −40 mV for 50 ms. In the inactivation protocol, the pre-pulse is at approximately −85 mV for 1 second, which inactivates about 15% of the T-type channels.
(§5) Test compounds were dissolved in external solution, 0.1-0.01% DMSO. After 10 min rest, they were applied by gravity close to the cell using a WPI microfil tubing. The “non-inactivated” pre-pulse was used to examine the resting block of a compound. The “inactivated” protocol was employed to study voltage-dependent block. However, the initial data shown below were mainly obtained using the non-inactivated protocol only. Kd values are shown for various compounds of the invention in Table 4 measured at 1 μM for the drug of interest except for compound 18 which was measured at 200 nM.

[3] = biological target: T2, human α1H T-type channels (Homo sapiens, UniProt O95180); assay: as above; format: cell-based; conditions: mainly non-inactivated protocol
T2 construct: expressed in transfected cells; host or cells: HEK 293
Procedure: as §1, §2, §3, §4, §5

[4] = biological target: T3, human α1G T-type channels (Homo sapiens, UniProt O43497); assay: as above; format: cell-based; conditions: mainly non-inactivated protocol
T3 construct: expressed in transfected cells; host or cells: HEK 293
Procedure: as §1, §2, §3, §4, §5

[5] = test system: T-type over L-type channels; conditions: cited from earlier work

T1 sequence (Q9P0X4 whole entry): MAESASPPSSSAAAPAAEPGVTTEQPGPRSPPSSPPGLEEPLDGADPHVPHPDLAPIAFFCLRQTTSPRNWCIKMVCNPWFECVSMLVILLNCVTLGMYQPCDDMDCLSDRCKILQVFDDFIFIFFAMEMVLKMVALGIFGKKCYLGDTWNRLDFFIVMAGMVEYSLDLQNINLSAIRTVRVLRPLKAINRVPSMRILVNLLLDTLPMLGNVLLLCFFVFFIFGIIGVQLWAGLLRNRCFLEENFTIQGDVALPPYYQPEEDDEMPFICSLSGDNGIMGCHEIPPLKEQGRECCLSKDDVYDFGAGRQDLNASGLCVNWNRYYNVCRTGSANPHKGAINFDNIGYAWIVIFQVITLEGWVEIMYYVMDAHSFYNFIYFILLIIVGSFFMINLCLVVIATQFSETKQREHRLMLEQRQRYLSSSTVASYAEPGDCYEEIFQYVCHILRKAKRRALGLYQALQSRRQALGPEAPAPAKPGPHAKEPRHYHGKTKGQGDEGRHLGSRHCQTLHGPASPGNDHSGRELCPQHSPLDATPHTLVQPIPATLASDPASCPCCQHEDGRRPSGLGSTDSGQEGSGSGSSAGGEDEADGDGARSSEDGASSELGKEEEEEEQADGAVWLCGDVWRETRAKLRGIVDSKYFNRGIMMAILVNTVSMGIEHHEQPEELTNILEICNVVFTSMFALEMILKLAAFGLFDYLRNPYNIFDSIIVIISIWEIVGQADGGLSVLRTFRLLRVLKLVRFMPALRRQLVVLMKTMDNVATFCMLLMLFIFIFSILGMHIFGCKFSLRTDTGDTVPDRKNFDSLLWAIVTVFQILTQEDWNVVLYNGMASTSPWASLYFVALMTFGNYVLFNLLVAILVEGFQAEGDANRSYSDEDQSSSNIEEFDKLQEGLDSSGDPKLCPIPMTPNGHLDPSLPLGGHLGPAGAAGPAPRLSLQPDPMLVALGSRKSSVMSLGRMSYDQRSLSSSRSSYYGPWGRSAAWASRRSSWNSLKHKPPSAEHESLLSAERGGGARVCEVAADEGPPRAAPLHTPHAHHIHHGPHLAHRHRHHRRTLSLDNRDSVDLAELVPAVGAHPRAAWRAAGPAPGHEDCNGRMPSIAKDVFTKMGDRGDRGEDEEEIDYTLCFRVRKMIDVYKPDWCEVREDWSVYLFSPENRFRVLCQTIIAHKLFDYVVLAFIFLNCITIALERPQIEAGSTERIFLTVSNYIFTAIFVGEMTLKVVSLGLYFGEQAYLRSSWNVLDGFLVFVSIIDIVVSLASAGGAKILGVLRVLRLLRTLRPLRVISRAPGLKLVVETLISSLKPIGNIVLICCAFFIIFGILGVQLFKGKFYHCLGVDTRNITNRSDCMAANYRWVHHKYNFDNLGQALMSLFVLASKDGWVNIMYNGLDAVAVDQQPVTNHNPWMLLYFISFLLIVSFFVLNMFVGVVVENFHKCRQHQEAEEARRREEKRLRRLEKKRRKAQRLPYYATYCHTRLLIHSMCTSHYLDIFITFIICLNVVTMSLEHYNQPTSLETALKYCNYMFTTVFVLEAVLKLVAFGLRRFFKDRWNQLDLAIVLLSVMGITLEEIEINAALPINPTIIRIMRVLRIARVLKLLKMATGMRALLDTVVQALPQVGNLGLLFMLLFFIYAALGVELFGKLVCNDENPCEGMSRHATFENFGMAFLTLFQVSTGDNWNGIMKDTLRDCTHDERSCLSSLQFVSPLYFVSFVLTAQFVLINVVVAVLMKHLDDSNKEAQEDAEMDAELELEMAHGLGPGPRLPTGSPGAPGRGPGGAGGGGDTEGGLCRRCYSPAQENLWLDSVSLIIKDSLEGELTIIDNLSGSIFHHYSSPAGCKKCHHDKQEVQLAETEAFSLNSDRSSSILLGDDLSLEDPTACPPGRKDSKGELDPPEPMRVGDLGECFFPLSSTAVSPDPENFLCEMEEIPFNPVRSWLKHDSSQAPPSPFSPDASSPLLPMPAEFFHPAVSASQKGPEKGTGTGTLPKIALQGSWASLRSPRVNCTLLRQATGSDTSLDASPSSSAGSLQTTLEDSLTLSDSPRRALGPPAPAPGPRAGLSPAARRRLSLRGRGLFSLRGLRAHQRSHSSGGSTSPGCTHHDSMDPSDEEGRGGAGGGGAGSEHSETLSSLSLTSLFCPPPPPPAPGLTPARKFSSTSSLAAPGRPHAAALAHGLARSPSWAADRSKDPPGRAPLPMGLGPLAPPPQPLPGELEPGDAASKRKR
T2 sequence (O95180 whole entry): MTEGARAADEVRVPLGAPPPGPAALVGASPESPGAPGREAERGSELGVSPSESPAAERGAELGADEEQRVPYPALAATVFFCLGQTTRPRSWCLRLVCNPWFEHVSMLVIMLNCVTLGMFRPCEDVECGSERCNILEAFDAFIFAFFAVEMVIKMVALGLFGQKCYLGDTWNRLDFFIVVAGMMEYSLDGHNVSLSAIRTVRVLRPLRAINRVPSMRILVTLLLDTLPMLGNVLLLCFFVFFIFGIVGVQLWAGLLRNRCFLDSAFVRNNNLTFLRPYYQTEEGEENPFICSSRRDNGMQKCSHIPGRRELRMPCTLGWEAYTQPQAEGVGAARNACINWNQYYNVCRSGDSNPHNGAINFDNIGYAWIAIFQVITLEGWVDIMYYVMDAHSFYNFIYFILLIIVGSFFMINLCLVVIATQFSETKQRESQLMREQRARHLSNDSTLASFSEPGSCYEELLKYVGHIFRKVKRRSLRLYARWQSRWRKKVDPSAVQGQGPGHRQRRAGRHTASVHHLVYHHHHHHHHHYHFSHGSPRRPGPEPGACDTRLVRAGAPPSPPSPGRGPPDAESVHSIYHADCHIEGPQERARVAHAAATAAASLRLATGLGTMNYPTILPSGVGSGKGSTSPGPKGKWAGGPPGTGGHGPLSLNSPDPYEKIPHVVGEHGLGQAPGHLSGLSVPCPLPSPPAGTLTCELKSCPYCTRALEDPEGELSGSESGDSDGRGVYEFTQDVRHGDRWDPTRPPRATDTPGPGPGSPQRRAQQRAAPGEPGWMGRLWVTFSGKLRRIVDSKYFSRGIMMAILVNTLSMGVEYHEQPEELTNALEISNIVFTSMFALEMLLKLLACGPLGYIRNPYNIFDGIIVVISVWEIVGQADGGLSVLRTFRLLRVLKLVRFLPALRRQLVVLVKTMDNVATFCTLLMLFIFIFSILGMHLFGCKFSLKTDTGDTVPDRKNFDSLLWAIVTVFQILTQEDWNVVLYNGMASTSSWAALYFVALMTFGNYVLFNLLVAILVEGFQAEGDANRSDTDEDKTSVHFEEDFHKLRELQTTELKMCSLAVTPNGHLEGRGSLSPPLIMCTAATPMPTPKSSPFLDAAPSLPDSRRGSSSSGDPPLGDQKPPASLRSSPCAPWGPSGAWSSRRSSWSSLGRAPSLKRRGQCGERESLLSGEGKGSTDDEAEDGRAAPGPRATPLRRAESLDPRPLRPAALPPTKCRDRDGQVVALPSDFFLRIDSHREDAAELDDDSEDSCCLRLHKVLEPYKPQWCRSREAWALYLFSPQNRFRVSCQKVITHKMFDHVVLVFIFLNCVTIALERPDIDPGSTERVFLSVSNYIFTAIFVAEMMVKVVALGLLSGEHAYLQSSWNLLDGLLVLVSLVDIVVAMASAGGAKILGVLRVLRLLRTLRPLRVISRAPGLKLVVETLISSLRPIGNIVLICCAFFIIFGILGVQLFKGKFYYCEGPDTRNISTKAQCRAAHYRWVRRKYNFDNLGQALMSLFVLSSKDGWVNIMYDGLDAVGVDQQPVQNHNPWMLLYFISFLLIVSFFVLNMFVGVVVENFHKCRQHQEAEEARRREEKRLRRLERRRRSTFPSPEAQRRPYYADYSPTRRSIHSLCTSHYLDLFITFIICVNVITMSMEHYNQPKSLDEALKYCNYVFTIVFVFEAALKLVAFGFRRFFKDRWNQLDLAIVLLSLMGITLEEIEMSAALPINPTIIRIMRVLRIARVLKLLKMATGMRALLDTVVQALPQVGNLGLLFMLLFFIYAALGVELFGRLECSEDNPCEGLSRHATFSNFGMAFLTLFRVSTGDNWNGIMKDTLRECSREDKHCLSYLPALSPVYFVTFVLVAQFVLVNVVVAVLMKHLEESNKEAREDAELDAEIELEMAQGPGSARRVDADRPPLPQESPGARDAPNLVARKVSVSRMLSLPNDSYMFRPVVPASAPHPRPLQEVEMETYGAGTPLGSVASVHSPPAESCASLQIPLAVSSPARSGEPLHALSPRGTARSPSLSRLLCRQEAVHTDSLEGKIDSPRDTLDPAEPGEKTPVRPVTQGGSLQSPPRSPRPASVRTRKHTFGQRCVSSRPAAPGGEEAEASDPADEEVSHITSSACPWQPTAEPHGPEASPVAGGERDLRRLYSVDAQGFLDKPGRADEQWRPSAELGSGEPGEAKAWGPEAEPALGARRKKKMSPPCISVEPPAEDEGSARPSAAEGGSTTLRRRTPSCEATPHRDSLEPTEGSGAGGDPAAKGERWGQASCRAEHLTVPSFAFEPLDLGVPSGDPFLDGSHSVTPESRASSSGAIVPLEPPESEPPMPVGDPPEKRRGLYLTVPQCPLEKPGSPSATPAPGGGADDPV

In the case of `CCC1(C)CC(=O)NC1=O` (centres unmarked) [ethosuximide], the anti-hyperalgesic activity [1] is listed as “anti-hyperalgesic activity”.

With `O=C(/C=C/c1ccc(F)c(Br)c1)NC1(C(=O)NCCc2c[nH]c3ccc(F)cc23)CCN(C(=O)C(F)(F)F)CC1` [Compound 27, (E)-4-(3-(3-bromo-4-fluorophenyl)acrylamido)-N-(2-(5-fluoro-1H-indol-3-yl)ethyl)-1-(2,2,2-trifluoroacetyl) piperidine-4-carboxamide] the Kd ([2]; measured at 1 μM drug) was 210 nM, the Kd ([3]; measured at 1 μM drug) was 840 nM and the Kd ([4]; measured at 1 μM drug) was 150 nM.

In the case of `O=C(/C=C/c1ccc(F)c(Br)c1)NC1(C(=O)NCCc2c[nH]c3ccc(F)cc23)CCCCC1` [Compound 12, (E)-1-(3-(3-bromo-4-fluorophenyl)acrylamido)-N-(2-(5-fluoro-1H-indol-3-yl)ethyl)cyclohexanecarboxamide], the Kd ([2]; measured at 1 μM drug) is reported as 280 nM, the Kd ([3]; measured at 1 μM drug) is reported as 1800 nM and the Kd ([4]; measured at 1 μM drug) is reported as 120 nM.

`O=C(/C=C/c1ccc(F)c(Br)c1)NC1(C(=O)NCCc2c[nH]c3ccccc23)CCNCC1` [Compound 2, (E)-N-(2-(1H-indol-3-yl)ethyl)-4-(3-(3-bromo-4-fluorophenyl)acrylamido)piperidine-4-carboxamide] showed a Kd ([2]; measured at 1 μM drug) of 30 nM, a Kd ([3]; measured at 1 μM drug) of 410 nM and a Kd ([4]; measured at 1 μM drug) of 30 nM.

In the case of `O=C(/C=C/c1ccc(F)c(Br)c1)N[C@H](C(=O)NCCc1c[nH]c2ccc(F)cc12)c1ccccc1` [Compound 17, (S,E)-3-(3-bromo-4-fluorophenyl)-N-(2-(2-(5-fluoro-1H-indol-3-yl)ethylamino)-2-oxo-1-phenylethyl)acrylamide], the Kd ([2]; measured at 1 μM drug) is reported as 170 nM, the Kd ([3]; measured at 1 μM drug) is reported as 940 nM and the Kd ([4]; measured at 1 μM drug) is reported as 100 nM.

For `COCC(=O)O[C@]1(CCN(C)CCCc2nc3ccccc3[nH]2)CCc2cc(F)ccc2[C@@H]1C(C)C` [Mibefradil], the “selective for T-type over L-type channels” value [5] is given as 10-30 fold and the anti-hyperalgesic activity [1] is given as “anti-hyperalgesic activity”.

`CN1CCC(NC(=O)/C=C/c2ccc(F)c(Br)c2)(C(=O)NCCc2c[nH]c3ccc(F)cc23)CC1` [Compound 22] gave a Kd ([2]; measured at 1 μM drug) of 330 nM, a Kd ([3]; measured at 1 μM drug) of 490 nM and a Kd ([4]; measured at 1 μM drug) of 100 nM.

Compound `O=C(/C=C/c1ccc(F)c(F)c1)NC1(C(=O)NCCc2c[nH]c3ccc(F)cc23)CCNCC1` [Compound 7, (E)-4-(3-(3,4-difluorophenyl)acrylamido)-N-(2-(5-fluoro-1H-indol-3-yl)ethyl)piperidine-4-carboxamide] has a Kd ([2]; measured at 1 μM drug) of 110 nM, a Kd ([3]; measured at 1 μM drug) of 137000 nM and a Kd ([4]; measured at 1 μM drug) of 130 nM.

Work on `O=C(/C=C/c1ccc(F)c(Br)c1)NC1(C(=O)NCCc2c[nH]c3ccc(F)cc23)CC1` [Compound 14, (E)-1-(3-(3-bromo-4-fluorophenyl)acrylamido)-N-(2-(5-fluoro-1H-indol-3-yl)ethyl)cyclopropanecarboxamide] yielded a Kd ([2]; measured at 1 μM drug) of 460 nM, a Kd ([3]; measured at 1 μM drug) of 12000 nM and a Kd ([4]; measured at 1 μM drug) of 290 nM.

With `O=C(/C=C/c1ccc(F)c(Br)c1)NC1(C(=O)NCCc2c[nH]c3ccc(F)cc23)CCCC1` [Compound 13, (E)-1-(3-(3-bromo-4-fluorophenyl)acrylamido)-N-(2-(5-fluoro-1H-indol-3-yl)ethyl)cyclopentanecarboxamide] the Kd ([2]; measured at 1 μM drug) was 390 nM, the Kd ([3]; measured at 1 μM drug) was 1790 nM and the Kd ([4]; measured at 1 μM drug) was 140 nM.

For `COC(=O)N1CCC(NC(=O)/C=C/c2ccc(F)c(Br)c2)(C(=O)NCCc2c[nH]c3ccc(F)cc23)CC1` [Compound 23, (E)-methyl 4-(3-(3-bromo-4-fluorophenyl)acrylamido)-4-(2-(5-fluoro-1H-indol-3-yl)ethylcarbamoyl)piperidine-1-carboxylate], the Kd ([2]; measured at 1 μM drug) was 870 nM and the Kd ([4]; measured at 1 μM drug) was 790 nM.

`NCC(=O)N1CCC(NC(=O)/C=C/c2ccc(F)c(Br)c2)(C(=O)NCCc2c[nH]c3ccc(F)cc23)CC1` [Compound 24, (E)-1-(2-aminoacetyl)-4-(3-(3-bromo-4-fluorophenyl)acrylamido)-N-(2-(5-fluoro-1H-indol-3-yl)ethyl)piperidine-4-carboxamide] showed a Kd ([2]; measured at 1 μM drug) of 440 nM, a Kd ([3]; measured at 1 μM drug) of 1450 nM and a Kd ([4]; measured at 1 μM drug) of 180 nM.

For `O=C(/C=C/c1ccc(F)c(Br)c1)N[C@@H](C(=O)NCCc1c[nH]c2ccc(F)cc12)c1ccccc1` [Compound 18, (R,E)-3-(3-bromo-4-fluorophenyl)-N-(2-(2-(5-fluoro-1H-indol-3-yl)ethylamino)-2-oxo-1-phenylethyl)acrylamide], the Kd ([2]; measured at 200 nM drug) was 380 nM, the Kd ([3]; measured at 200 nM drug) was 690 nM and the Kd ([4]; measured at 200 nM drug) was 70 nM.

For `O=C(/C=C/c1ccc(F)cc1)NC1(C(=O)Nc2cc(C(F)(F)F)cc(C(F)(F)F)c2)CCNCC1` [Compound 32, (E)-N-(3,5-bis(trifluoromethyl)phenyl)-4-(3-(4-fluorophenyl)acrylamido)piperidine-4-carboxamide], the Kd ([2]; measured at 1 μM drug) was 50 nM, the Kd ([3]; measured at 1 μM drug) was 420 nM and the Kd ([4]; measured at 1 μM drug) was 50 nM.

With `O=C(/C=C/c1ccc(F)c(Br)c1)NC1(C(=O)NCCc2c[nH]c3ccc(F)cc23)CCNCC1` [Compound 1] the Kd ([2]; measured at 1 μM drug) was 180 nM, the Kd ([3]; measured at 1 μM drug) was 470 nM and the Kd ([4]; measured at 1 μM drug) was 220 nM.
